Experimental data as given in patent US8222414B2, “Indole compounds as an inhibitor of cellular necrosis” (LG Life Sciences Ltd., priority 2007, dated 2012).

System: primary hepatocytes isolated from rats
Assay: Cell protective effects against doxorubicin in hepatocytes (WST-1 cell viability)
Format: cell-based
Conditions: Hepatocyte; primary rat hepatocytes pretreated with compound for 30 min, then doxorubicin; viability by WST-1 after 24-48 h
Method: Various endogenous/exogenous attacks on the cells trigger the mechanisms of cell death which is broadly classified into two types, i.e. apoptosis or necrosis. Using these cell death mechanisms, in the present experimental example, primacy hepatocytes isolated from rats were treated with drugs which were clinically shown to result in serious side-effects of hepatocyte toxicity or various chemicals which derive cell death, and the compounds synthesized in the Examples were estimated for their hepatocyte protective effects, after 24-48 h. The substances used to derive hepatocyte death include CCl4, ActD, H2O2, doxorubicin, anti-Fas Ab/Actinomycin D, acetaminophen, EtOH, CdCl2, palmitate, stearate, cyclophosphamide, terfenadine, diclofenac, simvastatin, and adefovir. Primary hepatocytes were isolated using the method of Seglen P O (Experimental Cell Research 74 (1972) pp 450-454). Briefly, hepatocytes were isolated according to the two-step collagenase perfusion method, and dead cells were removed by low speed (500 rpm) centrifugation for 10 min using percoll gradient (Kreamer B L etc, In Vitro Cellular & Developmental Biology 22 (1986) pp 201-211). During this step, the viability of cells was maintained 90% or above. The cells were suspended in HepatoZYME media (Gibco BRL), and the number of cells was counted. 1.5×10^4 cells in 100 μl were placed into the collagen-coated 96-well plate (BD biocoat), and adhered on the bottom for 3-4 h.
In order to assess the hepatocyte protective effect, above adhered cells were pretreated with the Example compounds for 30 min. At this time, the concentration of the Example compounds were serially diluted by 2-fold or 3-fold over 5 steps starting from 30 uM, 10 uM or 1 uM depending on the experiments, and the final concentration of DMSO was adjusted to 0.2%. 30 min after the treatment by compounds, cells were treated by the substances deriving hepatocyte death or hepatotoxic drugs at the concentrations indicated in Table 1. After 24-48 h, the viability of cells was determined to estimate the hepatocyte protective effects. The viability of cells was determined using WST-1 (MK-400, […]) method by the absorbance at 440 nm. Hepatocyte protective effects of the Example compounds were represented by “EC50” which was calculated from measured values. “EC50” herein means the concentration of the compound at which 50% of maximum protective effect is observed in the experiment.

| SMILES | EC50 |
| --- | --- |
| Cc1cc(NC2CCOCC2)c2[nH]c(C3=N[C@@H](CCN4CCOCC4)CS3)cc2c1 [Example 184, (5-Methyl-2-{(S)-4-[(morpholin-4-yl)-ethyl]-4,5-dihydro-thiazol-2-yl}-1H-indol-7-yl)-(tetrahydro-pyran-4-yl)-amine] | 180 nM |
| Clc1cc(NC2CCOCC2)c2[nH]c(C3=N[C@H](CCN4CCNCC4)CS3)cc2c1 [Example 193, (5-Chloro-2-{(R)-4-[(piperazin-1-yl)-ethyl]-4,5-dihydro-thiazol-2-yl}-1H-indol-7-yl)-(tetrahydro-pyran-4-yl)-amine] | 650 nM |
| Fc1cc(NC2CCCC2)c2[nH]c(C3=N[C@H](CCN4CCOCC4)CS3)cc2c1 [Example 201, (5-Fluoro-2-{(R)-4-[(morpholin-4-yl)-ethyl]-4,5-dihydro-thiazol-2-yl}-1H-indol-7-yl)-cyclopentyl-amine] | 330 nM |
| O=C1CCCN1CC[C@@H]1CSC(c2cc3cc(F)cc(NC4CCCC4)c3[nH]2)=N1 [Example 205, (5-Fluoro-2-{(R)-4-[(2-oxopyrrolidin-1-yl)-ethyl]-4,5-dihydro-thiazol-2-yl}-1H-indol-7-yl)-cyclopentyl-amine] | 340 nM |
| Clc1cc(NC2CCCC2)c2[nH]c(C3=N[C@H](CCCN4CCOCC4)CS3)cc2c1 [Example 222, (5-Chloro-2-{(R)-4-[(morpholin-4-yl)-propyl]-4,5-dihydro-thiazol-2-yl}-1H-indol-7-yl)-cyclopentyl-amine] | 180 nM |
| CC(C)CN(CC(C)C)c1cc(Oc2ccccc2)cc2cc(C3=N[C@@H](CCN4CCCC4)CS3)[nH]c12 [Example 228, (5-Phenoxy-2-{(S)-4-[(pyrrolidin-1-yl)-ethyl]-4,5-dihydro-thiazol-2-yl}-1H-indol-7-yl)-diisobutyl-amine] | 130 nM |
| c1ccc(Oc2cc(NC3CCCC3)c3[nH]c(C4=N[C@@H](CCN5CCNCC5)CS4)cc3c2)cc1 [Example 230, (5-Phenoxy-2-{(S)-4-[(piperazin-1-yl)-ethyl]-4,5-dihydro-thiazol-2-yl}-1H-indol-7-yl)-cyclopentyl-amine] | > 320 nM |
| FCc1nnc2n1CCN(CC[C@H]1CSC(c3cc4cc(Oc5ccccc5)cc(NC5CCCC5)c4[nH]3)=N1)C2 [Example 232, Cyclopentyl-(5-phenoxy-2-{(S)-4-[2-(3-fluoromethyl-5,6-dihydro-8H-[1,2,4]triazolo[4,3-a]pyrazin-7-yl)-ethyl]-4,5-dihydro-thiazol-2-yl}-1H-indol-7-yl)-amine] | 240 nM |
| N[C@H]1CCN(CC[C@H]2CSC(c3cc4cc(Oc5ccccc5)cc(NC5CCCC5)c4[nH]3)=N2)C1 [Example 238, (5-Phenoxy-2-{(S)-4-[(3S)-3-(amino)pyrrolidin-1-yl-ethyl]-4,5-dihydro-thiazol-2-yl}-1H-indol-7-yl)-cyclopentyl-amine] | 330 nM |
| Cc1cc(NCC2CCOCC2)c2[nH]c(C3=N[C@@H](CCN4CCCC4C(N)=O)CS3)cc2c1 (stereo partly drawn) [Example 240, (5-Methyl-2-{(S)-4-[2-(aminocarbonyl)pyrrolidin-1-yl-ethyl]-4,5-dihydro-thiazol-2-yl}-1H-indol-7-yl)-(tetrahydropyran-4-yl)methyl-amine] | 280 nM |
| CC1SC(c2cc3cccc(NCC4CCOCC4)c3[nH]2)=N[C@H]1C(O)C1CCCN1 (stereo partly drawn) [Example 241, (5-Methyl-[(S)-2-(7-(tetrahydropyran-4-yl)methylamino-1H-indol-2-yl)-4,5-dihydro-thiazol-4-yl])-pyrrolidin-2-yl-methanol] | 210 nM |
| CCOP(=O)(CC[C@H]1CSC(c2cc3cc(C)cc(NCC4CCOCC4)c3[nH]2)=N1)OCC [Example 244, (5-Methyl-2-{(S)-4-[2-diethoxyphosphoryl-ethyl]-4,5-dihydro-thiazol-2-yl}-1H-indol-7-yl)-(tetrahydropyran-4-yl)methyl-amine] | 195 nM |
| c1ccc(Oc2cc(NC3CCCC3)c3[nH]c(C4=N[C@H](CCN5CCCC5)CS4)cc3c2)cc1 [Example 246, (5-Phenoxy-2-{(R)-4-[pyrrolidin-1-yl-ethyl]-4,5-dihydro-thiazol-2-yl}-1H-indol-7-yl)-cyclopentyl-amine] | 350 nM |
| c1ccc(Oc2cc(NCC3CCOCC3)c3[nH]c(C4=N[C@@H](CCN5CCOCC5)CS4)cc3c2)cc1 [Example 247, (5-Phenoxy-2-{(S)-4-[morpholin-4-yl-ethyl]-4,5-dihydro-thiazol-2-yl}-1H-indol-7-yl)-(tetrahydropyran-4-yl)methyl-amine] | 860 nM |
| c1ccc(Oc2cc(NC3CCCC3)c3[nH]c(C4=N[C@@H](CCN5CCCC5)CS4)cc3c2)cc1 [Example 249, (5-Phenoxy-2-{(S)-4-[pyrrolidin-1-yl-ethyl]-4,5-dihydro-thiazol-2-yl}-1H-indol-7-yl)-cyclopentyl-amine] | 110 nM |
| Cc1cc(NC2CCC(F)(F)CC2)c2[nH]c(C3=N[C@@H](CCN4CCNC(=O)C4)CS3)cc2c1 [Example 250, (5-Methyl-2-{(S)-4-[2-oxopiperazin-4-yl-ethyl]-4,5-dihydro-thiazol-2-yl}-1H-indol-7-yl)-4,4-difluorocyclohexyl-amine] | 90 nM |
| Cc1cc(NC2CCC(F)(F)CC2)c2[nH]c(C3=N[C@@H](CCN4CCOCC4)CS3)cc2c1 [Example 251, (5-Methyl-2-{(S)-4-[morpholin-4-yl-ethyl]-4,5-dihydro-thiazol-2-yl}-1H-indol-7-yl)-4,4-difluorocyclohexyl-amine] | 300 nM |
| Cc1cc(NCC2CCOCC2)c2[nH]c(C3=N[C@@H](CCN4CCNC(=O)C4)CS3)cc2c1 [Example 253, (5-Methyl-2-{(S)-4-[2-oxopiperazin-4-yl-ethyl]-4,5-dihydro-thiazol-2-yl}-1H-indol-7-yl)-(tetrahydropyran-4-yl)methyl-amine] | 200 nM |
| Clc1cc(NC2CCOCC2)c2[nH]c(C3=N[C@@H](CCN4CCN(c5ccccn5)CC4)CS3)cc2c1 [Example 254, (5-Chloro-2-{(S)-4-[1-(pyridin-2-yl)piperazin-4-yl-ethyl]-4,5-dihydro-thiazol-2-yl}-1H-indol-7-yl)-(tetrahydropyran-4-yl)-amine] | 1000 nM |

Same assay, conditions: primary rat hepatocytes pretreated with compound for 30 min, then doxorubicin; viability by WST-1 after 24-48 h

| SMILES | EC50 |
| --- | --- |
| CS(=O)(=O)CC[C@@H]1CSC(c2cc3cccc(NC4CCOCC4)c3[nH]2)=N1 [Example 218] | 260 nM |
| O=C(CO)N1CCN(CC[C@H]2CSC(c3cc4cc(Oc5ccccc5)cc(NC5CCCC5)c4[nH]3)=N2)CC1 [Example 229] | 250 nM |
| CC(C)(C)OC(=O)N1CCN(CC[C@H]2CSC(c3cc4cc(Oc5ccccc5)cc(NC5CCCC5)c4[nH]3)=N2)CC1 [Example 231, t-Butyl-(4-{2-[(S)-2-(5-phenoxy-7-cyclopentylamino)-1H-indol-2-yl)-4,5-dihydro-thiazol-4-yl]-ethyl}-piperazine-1-carboxylate] | 200 nM |
| O=C1CN(CC[C@H]2CSC(c3cc4cc(Oc5ccccc5)cc(NC5CCCC5)c4[nH]3)=N2)CCN1 [Example 233] | 270 nM |
| O=C(C1CCCO1)N1CCN(CC[C@H]2CSC(c3cc4cc(Oc5ccccc5)cc(NC5CCCC5)c4[nH]3)=N2)CC1 (stereo partly drawn) [Example 234] | 90 nM |
| c1ccc(Oc2cc(NC3CCCC3)c3[nH]c(C4=N[C@@H](CCN5CCN(c6ccccn6)CC5)CS4)cc3c2)cc1 [Example 235, (5-Phenoxy-2-{(S)-4-[(pyridin-2-yl)piperazine-ethyl]-4,5-dihydro-thiazol-2-yl}-1H-indol-7-yl)-cyclopentyl-amine] | > 540 nM |
| Fc1ccccc1N1CCN(CC[C@H]2CSC(c3cc4cc(Oc5ccccc5)cc(NC5CCCC5)c4[nH]3)=N2)CC1 [Example 236, (5-Phenoxy-2-{(S)-4-[(2-fluorophenyl)piperazine-ethyl]-4,5-dihydro-thiazol-2-yl}-1H-indol-7-yl)-cyclopentyl-amine] | 160 nM |
| CC(=O)N1CCN(CC[C@H]2CSC(c3cc4cc(Oc5ccccc5)cc(NC5CCCC5)c4[nH]3)=N2)CC1 [Example 239] | 830 nM |
